One assay concerns HEK293A cells. In words: Effect of NAMPT activator on the intracellular NAD+ level (in vitro cell-based assay). The following applies: HEK293-A, 3 h culture with compound, NAD+/NADH-Glo assay, read-out: EC50 (intracellular NAD+ content). As to the method: HEK293A cells were cultured in Dulbecco's Modified Eagle Medium (DMEM (high glucose)) containing 10% fetal bovine serum (FBS), non-essential amino acid (NEAA), and antibiotic-antimycotic [reaction medium]. On the day before the test, HEK293A cells were inoculated at a ratio of 3.0×10^4 cells/80 μL to 96 well poly-D-lysine coated plate and cultured overnight in a CO2 incubator.
On the day of the test, each test compound diluted with reaction medium to a concentration of 5 times the final concentration was added at a ratio of 20 μL/well, and the cells were further cultured for 3 h. After removal of the medium, the cells were lysed in 50 μL/well of Bicarbonate Base Buffer (100 mM sodium carbonate, 20 mM sodium bicarbonate, 100 mM nicotinamide, 20 mM Triton X-100) containing 1% dodecyl trimethyl-ammonium bromide (DTAB). The NAD^+ content in the cell extract was measured using NAD^+/NADH-Glo assay kit according to the manufacturer's instructions. Hereinafter, the procedures will be briefly described. 20 μL of the lysate was separated, and 10 μL of 0.4 N HCL was added thereto, followed by incubation at 60° C. for 15 min and subsequently at 25° C. for 10 min. The mixture was neutralized by the addition of 10 μL of 0.5 M Trizma base solution and then diluted 10-fold with distilled water. 15 μL of the diluted sample was mixed with an equal amount (15 μL) of NAD^+/NADH-Glo reagent in 384 well black plate, and the mixture was incubated for 30 min in the dark. Then, chemiluminescence intensity was measured.
EC50 value of each compound was calculated from the calculated values of the compound at various concentrations using GraphPad Prism software (Table 2).

In the next assay the target is human NAMPT enzyme (Homo sapiens (Human), UniProt P43490). Put plainly: NAMPT enzyme activating effect (in vitro cell-free enzyme assay). In kind it is biochemical. As to conditions: 2 ng/mL human NAMPT enzyme, 1-h incubation at 25° C., fluorescence of NMN derivative. The method, then: The NAMPT enzyme assay was conducted in accordance with the method of Formentini et al. […] Hereinafter, the procedures will be briefly described. The NAMPT enzyme reaction was carried out using polypropylene 384 well V shaped black plate (Greiner Bio One International GmbH). […] Then, 22 μL of 88% formic acid was added and the mixture was further incubated for 30 min in the dark. The NAMPT enzyme activity was calculated as the difference between fluorescence intensity (Ex 380 nm/Em 450 nm) from the reaction of a test compound treatment group and fluorescence intensity from control reaction free from the NAMPT enzyme. [NAMPT enzyme activity]=[Fluorescence intensity of the test substance treatment group]−[Mean fluorescence intensity of the control reaction free from the NAMPT enzyme] EC50 value of each compound was calculated from the enzyme activities of the compound at various concentrations by using GraphPad Prism software (GraphPad Software) (Table 1)
Sequence of human NAMPT enzyme (P43490 whole entry): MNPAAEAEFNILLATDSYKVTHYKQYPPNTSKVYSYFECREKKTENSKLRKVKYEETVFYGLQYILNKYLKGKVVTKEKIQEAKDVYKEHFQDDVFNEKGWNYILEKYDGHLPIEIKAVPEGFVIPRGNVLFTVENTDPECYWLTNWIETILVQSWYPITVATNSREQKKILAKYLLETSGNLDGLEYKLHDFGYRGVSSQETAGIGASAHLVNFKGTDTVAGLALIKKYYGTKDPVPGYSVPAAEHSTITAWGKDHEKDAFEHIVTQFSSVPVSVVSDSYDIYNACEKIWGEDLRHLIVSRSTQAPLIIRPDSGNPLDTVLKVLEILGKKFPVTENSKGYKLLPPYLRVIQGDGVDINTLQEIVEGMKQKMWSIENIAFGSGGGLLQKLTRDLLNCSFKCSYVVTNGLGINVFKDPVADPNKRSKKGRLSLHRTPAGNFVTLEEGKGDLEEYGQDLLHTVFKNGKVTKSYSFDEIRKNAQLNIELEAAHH

This passage reports EC50 results from patent publication US11918568B2, “Fused ring compound having urea structure” (DAIICHI SANKYO COMPANY, LIMITED, priority 2018, dated 2024).

The structures appear in SMILES notation.

For `Cc1ccccc1-c1nc2ccc(NC(=O)NCc3ccncc3)cc2o1` [Example 1, N-[2-(2-Methylphenyl)-1,3-benzoxazol-6-yl]-N′-[(pyridin-4-yl)methyl]urea], the concentration giving a half-maximal response (EC50) worked out at 430 nM in the assay with HEK293A cells and 110 nM on human NAMPT enzyme.

On to `O=C(NCc1ccncc1)Nc1ccc2oc(-c3ccccc3)nc2c1` [Example 7, N-(2-Phenyl-1,3-benzoxazol-5-yl)-N′-[(pyridin-4-yl)methyl]urea], for which the EC50 with HEK293A cells is 540 nM; at human NAMPT enzyme, 410 nM.

On to `O=C(NCc1ccncc1)Nc1ccc2nc(-c3ccccc3)nn2c1` [Example 8, N-(2-Phenyl[1,2,4]triazolo[1,5-a]pyridin-6-yl)-N′-[(pyridin-4-yl)methyl]urea], for which the EC50 was 210 nM in the assay on HEK293A cells and 80 nM at human NAMPT enzyme.

Take `N#Cc1c2ccc(NC(=O)NCc3ccncc3)cc2nn1-c1ccccc1` [Example 21, N-(3-Cyano-2-phenyl-2H-indazol-6-yl)-N′-[(pyridin-4-yl)methyl]urea]: the EC50 stood at 230 nM in the assay on HEK293A cells and 110 nM at human NAMPT enzyme.

In the case of `Cn1nccc1-c1c(-c2ccccc2)nn2cc(NC(=O)NCc3ccncc3)ccc12` [Example 22, N-[3-(1-Methyl-1H-pyrazol-5-yl)-2-phenylpyrazolo[1,5-a]pyridin-6-yl]-N′-[(pyridin-4-yl)methyl]urea], the EC50 in the assay with HEK293A cells turned out to be 120 nM; at human NAMPT enzyme, 80 nM.

Take `CCN(CC)C(=O)c1noc2cc(NC(=O)NCc3ccncc3)ccc12` [Example 50, N,N-Diethyl-6-({[(pyridin-4-yl)methyl]carbamoyl}amino)-1,2-benzoxazole-3-carboxamide]: the EC50 with HEK293A cells is 450 nM; at human NAMPT enzyme, 240 nM.

`O=C(NCc1ccncc1)Nc1ccc2c(c1)OC(c1ccccc1)C2` (stereo not shown) [Example 51, N-(2-Phenyl-2,3-dihydro-1-benzofuran-6-yl)-N′-[(pyridin-4-yl)methyl]urea] displayed an EC50 at human NAMPT enzyme of 120 nM.

On to `COc1cccc(C2Cc3ccc(NC(=O)NCc4ccncc4)cc3O2)c1` (stereo not shown) [Example 52, N-[2-(3-Methoxyphenyl)-2,3-dihydro-1-benzofuran-6-yl]-N′-[(pyridin-4-yl)methyl]urea], for which the half-maximal effective concentration (EC50) worked out at 1240 nM in the assay on HEK293A cells and 80 nM at human NAMPT enzyme.

For the compound `O=C(NCc1ccncc1)Nc1ccc2c(c1)OCC2c1ccccc1` (stereo not shown) [Example 54, N-(3-Phenyl-2,3-dihydro-1-benzofuran-6-yl)-N′-[(pyridin-4-yl)methyl]urea], the EC50 at human NAMPT enzyme came out at 270 nM.

Turning to `CCN(CC)C(=O)c1coc2cc(NC(=O)NCc3ccncc3)ccc12` [Example 55, N,N-Diethyl-6-({[(pyridin-4-yl)methyl]carbamoyl}amino)-1-benzofuran-3-carboxamide], the EC50 on human NAMPT enzyme is 490 nM.

The compound `CCN(Cc1ccccc1)C(=O)c1noc2cc(NC(=O)NCc3ccncc3)ccc12` [Example 56, N-Benzyl-N-ethyl-6-({[(pyridin-4-yl)methyl]carbamoyl}amino)-1,2-benzoxazole-3-carboxamide] gave an EC50 at human NAMPT enzyme of 30 nM.

Consider `O=C(NCc1ccncc1)Nc1ccc2c(C(=O)N3CC4CCC(C3)O4)noc2c1` [Example 57, N-[3-(8-Oxa-3-azabicyclo[3.2.1]octane-3-carbonyl)-1,2-benzoxazol-6-yl]-N′-[(pyridin-4-yl)methyl]urea], for which the EC50 at human NAMPT enzyme stood at 190 nM.
